Measurements published in US20240067665A1, “SMALL MOLECULES FOR BORON NEUTRON CAPTURE THERAPY” (Aviko Radiopharmaceuticals, LLC, priority 2022, published 2024).

Legend:
Conditions in all cases: 100 uM
SAS (head & neck cancer) = assay: Cell uptake assay, SAS cells; type: cell-based, human
Experimental: (§1) • 1.1.1 15 mL of cell culture medium was placed into a T225 flask. • 1.1.2 The flask was placed in a humidified 37° C., 5% CO2 incubator for 15 minutes to allow medium to equilibrate to the proper pH and temperature. • 1.1.3 The vial was removed from liquid nitrogen and thawed rapidly by placing at 37° C. in a water bath with gentle agitation for 1-2 minutes and then decontaminated by wiping with 70% ethanol before opening in a Class II biological safety cabinet. • 1.1.4 The vial contents were transferred dropwise into 10 mL of cell culture medium in a sterile 15 mL conical tube. • 1.1.5 The cells were centrifuged at 1,300 rpm for 5 minutes. • 1.1.6 The supernatant was aspirated and re-suspended the cells and transferred the cells into T225 flask containing cell culture medium.
(§2) • 1.2.1 Culture medium were renewed every 2-3 days. • 1.2.2 Keep the flask in a humidified 37° C., 5% CO2 incubator
(§3) • Cells were harvested and diluted in culture medium to the designated concentration. Then the cells were cultured in T25 flasks, one T25 flask for one sample. 2.2 Formulation of test compounds • 2.2.1 L-Boronophenylalanine (L-BPA, 4-boron-L-phenylalanine, Purity: 95%, Chemical formula: C9H12BNO4, MW: 209.01, CAS: 76410-58-7) and fructose were dissolved in PBS at a molar ratio of 1:5, and then a 1.27 M ratio of 1 N NaOH is added. The mixture was stirred until L-BPA is completely dissolved, and the pH value was titrated to 7.2-7.4 with 1 N HC1. • 2.2.2 For test compounds other than BPA, stock solutions were prepared of each compound in DMSO or fructose formulation at a concentration of 20 mM (such that final % DMSO in the cellular assay medium=0.5%) 2.3 Compound treatment • 2.3.1 The cells were seeded overnight (12-18 hours) to allow the cells to adhere well. • 2.3.2 The stock solution of each compound was added to each T25 flask such that the final concentration for each compound is 100 uM (0.1 mM). • 2.3.3 The flasks were placed in a 37° C., 5% CO2 incubator for 1 hour, 4 hours and 24 hours. • 2.3.4 After treatment for 1 hour, 4 hour, and 24 hours, the cells were collected by using 0.25% Trypsin with 0.53 mM EDTA. • 2.3.5 Centrifuged at 1,300 rpm for 5 min to collect cell pellets.

B16F10 = assay: Cell uptake assay, B16F10 cells; type: cell-based, mouse
Experimental: as §1, §2, §3

NIH-3T3 = assay: Cell uptake assay, NIH-3T3 cells; type: cell-based, mouse
Experimental: as §1, §2, §3

U87-MG (glioblastoma) = assay: Cell uptake assay, U87-MG cells; type: cell-based, human
Experimental: as §1, §2, §3

SMILES	Cell uptake, Mean, SAS (SAS (head & neck cancer); 4 hours) [ng/10^6 cell]	Cell uptake, Mean, SAS (SAS (head & neck cancer); 24 hours) [ng/10^6 cell]	Cell uptake, Mean, B16F10 (B16F10; 4 hours) [ng/10^6 cell]	Cell uptake, Mean, B16F10 (B16F10; 24 hours) [ng/10^6 cell]	Cell uptake, Mean, NIH-3T3 (NIH-3T3; 1 hour) [ng/10^6 cell]	Cell uptake, Mean, NIH-3T3 (NIH-3T3; 4 hours) [ng/10^6 cell]	Cell uptake, Mean, SAS (SAS (head & neck cancer); 1 hour) [ng/10^6 cell]	Cell uptake, Mean, U87-MG (U87-MG (glioblastoma); 1 hour) [ng/10^6 cell]	Cell uptake, Mean, U87-MG (U87-MG (glioblastoma); 4 hours) [ng/10^6 cell]	Cell uptake, Mean, U87-MG (U87-MG (glioblastoma); 24 hours) [ng/10^6 cell]	Cell uptake, Mean, B16F10 (B16F10; 1 hour) [ng/10^6 cell]	Cell uptake, Mean, NIH-3T3 (NIH-3T3; 24 hours) [ng/10^6 cell]
N[C@@H](Cc1cccc(CCB(O)O)c1)C(=O)O [compound 5, (S)-2-amino-3-(3-(2-boronoethyl)phenyl)propanoic acid]	225	214	157	262	171	77.2						
N[C@@H](Cc1ccc(OCCB(O)O)cc1F)C(=O)O [compound 6, (2S)-2-amino-3-{4-[2-(dihydroxyboranyl)ethoxy]-2-fluorophenyl}propanoic acid]	106	46.0	92.3		53.4	23.2	152	160	137			
N[C@@H](Cc1ccc(OCB(O)O)c(F)c1)C(=O)O [compound 10, (2S)-2-amino-3-{4-[(dihydroxyboranyl)methoxy]-3-fluorophenyl}propanoic acid]	1850		442	814	81.9	204	1285	295	673	681		
N[C@@H](Cc1ccc(F)c(OCB(O)O)c1)C(=O)O [compound 11, (2S)-2-amino-3-{3-[(dihydroxyboranyl)methoxy]-4-fluorophenyl}propanoic acid]	454	999	121	202	32.4	92.8	529	113	322	309	50.6	122
N[C@@H](Cc1cc(F)cc(OCB(O)O)c1)C(=O)O [compound 13, (2S)-2-amino-3-[3-[(dihydroxyboranyl)methoxy]-5-fluorophenyl]propanoic acid]	1012	1077	310	304	183	222	903	521	828	735	180	168
N[C@@H](Cc1cccc(C2(B(O)O)CC2)c1)C(=O)O [compound 14, (2S)-2-amino-3-{3-[1-(dihydroxyboranyl)cyclopropyl]phenyl}propanoic acid]						444						
N[C@@H](Cc1ccc(C2(B(O)O)CC2)cc1)C(=O)O [compound 15, (2S)-2-amino-3-{4-[1-(dihydroxyboranyl)cyclopropyl]phenyl}propanoic acid]	283	419		458	223	185	491	225	337	269	193	169
